Source: ChEMBL document CHEMBL1201862, “PubChem BioAssay data set” (2004)
Active and inactive are the calls of the source.

Tests used:
Format in all cases: functional
[1] = molecular target: Dual specificity mitogen-activated protein kinase kinase 1 (Homo sapiens, UniProt Q02750); experiment: Navigating the Kinome. Panel member name: MAP2K1
[2] = molecular target: Leucine-rich repeat serine/threonine-protein kinase 2 (Homo sapiens, UniProt Q5S007);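 further: value from a broad kinome-wide panel profiling study in which LRRK2 was one of the kinases tested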
[3] = molecular target: Hepatocyte growth factor receptor (Homo sapiens, UniProt P08581);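 further: kinase panel profiling across the kinome, with MET as the panel member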
[4] = molecular target: 5'-AMP-activated protein kinase catalytic subunit alpha-1 (Homo sapiens, UniProt Q13131)
[5] = molecular target: High affinity nerve growth factor receptor (Homo sapiens, UniProt P04629);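 further: NTRK1 tested as one member of a kinome-wide profiling panel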
[6] = molecular target: Cyclin-dependent kinase 9 (Homo sapiens, UniProt P50750);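 further: value from the CDK9 entry of a kinome-spanning kinase panel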
[7] = molecular target: Mitogen-activated protein kinase 9 (Homo sapiens, UniProt P45984);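 further: value from a kinome panel profiling assay, MAPK9 panel entry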
[8] = molecular target: Focal adhesion kinase 1 (Homo sapiens, UniProt Q05397);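 further: measured as one member of a kinome panel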
[9] = molecular target: Serine/threonine-protein kinase TAO1 (Homo sapiens, UniProt Q7L7X3)
[10] = molecular target: Dual specificity protein kinase CLK2 (Homo sapiens, UniProt P49760)
[11] = molecular target: Dual specificity mitogen-activated protein kinase kinase 2 (Homo sapiens, UniProt P36507); experiment: Navigating the Kinome. Panel member name: MAP2K2
[12] = molecular target: Tyrosine-protein kinase JAK2 (Homo sapiens, UniProt O60674);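 further: JAK2 tested as one member of a kinase panel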
[13] = molecular target: cAMP-dependent protein kinase catalytic subunit alpha (Homo sapiens, UniProt P17612)
[14] = molecular target: Serine/threonine-protein kinase TBK1 (Homo sapiens, UniProt Q9UHD2); experiment: Navigating the Kinome. Panel member name: TBK1
[15] = molecular target: G protein-coupled receptor kinase 5 (Homo sapiens, UniProt P34947); experiment: Navigating the Kinome. Panel member name: GPRK5
[16] = molecular target: Mitogen-activated protein kinase 8 (Homo sapiens, UniProt P45983);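 further: value comes from one member of a kinome-wide kinase profiling panel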
[17] = molecular target: Aurora kinase A (Homo sapiens, UniProt O14965);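 further: value from the Navigating the Kinome kinase panel profiling, panel entry STK6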
[18] = molecular target: Leukocyte tyrosine kinase receptor (Homo sapiens, UniProt P29376); experiment: Navigating the Kinome. Panel member name: LTK
[19] = molecular target: Activated CDC42 kinase 1 (Homo sapiens, UniProt Q07912); experiment: Navigating the Kinome. Panel member name: ACK1
[20] = molecular target: cAMP-dependent protein kinase catalytic subunit PRKX (Homo sapiens, UniProt P51817)
[21] = molecular target: Mitogen-activated protein kinase 10 (Homo sapiens, UniProt P53779); experiment: Navigating the Kinome. Panel member name: MAPK10
[22] = molecular target: Serine/threonine-protein kinase PAK 4 (Homo sapiens, UniProt O96013);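 further: value obtained within a kinome profiling panel in which PAK4 was one of the panel members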
[23] = molecular target: Tyrosine-protein kinase receptor TYRO3 (Homo sapiens, UniProt Q06418);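 further: TYRO3 value obtained as one member of a kinome-wide profiling panel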
[24] = molecular target: Platelet-derived growth factor receptor alpha (Homo sapiens, UniProt P16234); experiment: Navigating the Kinome. Panel member name: PDGFRA

Measured: Ki

Sequence of High affinity nerve growth factor receptor (P04629 whole entry): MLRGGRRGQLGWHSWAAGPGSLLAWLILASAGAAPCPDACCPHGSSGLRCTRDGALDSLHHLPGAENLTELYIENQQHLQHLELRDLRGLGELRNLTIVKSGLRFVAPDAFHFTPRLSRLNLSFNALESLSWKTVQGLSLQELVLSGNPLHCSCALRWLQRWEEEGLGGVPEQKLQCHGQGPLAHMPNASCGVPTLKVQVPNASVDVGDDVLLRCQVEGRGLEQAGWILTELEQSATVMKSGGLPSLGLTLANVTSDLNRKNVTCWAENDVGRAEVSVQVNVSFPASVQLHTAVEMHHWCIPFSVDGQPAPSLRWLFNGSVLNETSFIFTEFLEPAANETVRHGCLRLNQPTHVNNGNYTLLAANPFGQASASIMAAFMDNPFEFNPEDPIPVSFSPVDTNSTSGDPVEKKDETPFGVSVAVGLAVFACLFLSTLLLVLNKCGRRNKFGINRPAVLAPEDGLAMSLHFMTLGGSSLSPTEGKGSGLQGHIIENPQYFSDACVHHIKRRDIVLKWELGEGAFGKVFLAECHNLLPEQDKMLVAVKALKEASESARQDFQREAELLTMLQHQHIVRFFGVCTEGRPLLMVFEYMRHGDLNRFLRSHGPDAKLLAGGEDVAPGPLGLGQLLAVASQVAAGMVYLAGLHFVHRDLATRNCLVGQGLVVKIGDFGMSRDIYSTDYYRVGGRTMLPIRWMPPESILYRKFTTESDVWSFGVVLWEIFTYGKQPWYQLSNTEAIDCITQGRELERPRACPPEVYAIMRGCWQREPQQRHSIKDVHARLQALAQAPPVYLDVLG
Sequence of Serine/threonine-protein kinase TAO1 (Q7L7X3 whole entry): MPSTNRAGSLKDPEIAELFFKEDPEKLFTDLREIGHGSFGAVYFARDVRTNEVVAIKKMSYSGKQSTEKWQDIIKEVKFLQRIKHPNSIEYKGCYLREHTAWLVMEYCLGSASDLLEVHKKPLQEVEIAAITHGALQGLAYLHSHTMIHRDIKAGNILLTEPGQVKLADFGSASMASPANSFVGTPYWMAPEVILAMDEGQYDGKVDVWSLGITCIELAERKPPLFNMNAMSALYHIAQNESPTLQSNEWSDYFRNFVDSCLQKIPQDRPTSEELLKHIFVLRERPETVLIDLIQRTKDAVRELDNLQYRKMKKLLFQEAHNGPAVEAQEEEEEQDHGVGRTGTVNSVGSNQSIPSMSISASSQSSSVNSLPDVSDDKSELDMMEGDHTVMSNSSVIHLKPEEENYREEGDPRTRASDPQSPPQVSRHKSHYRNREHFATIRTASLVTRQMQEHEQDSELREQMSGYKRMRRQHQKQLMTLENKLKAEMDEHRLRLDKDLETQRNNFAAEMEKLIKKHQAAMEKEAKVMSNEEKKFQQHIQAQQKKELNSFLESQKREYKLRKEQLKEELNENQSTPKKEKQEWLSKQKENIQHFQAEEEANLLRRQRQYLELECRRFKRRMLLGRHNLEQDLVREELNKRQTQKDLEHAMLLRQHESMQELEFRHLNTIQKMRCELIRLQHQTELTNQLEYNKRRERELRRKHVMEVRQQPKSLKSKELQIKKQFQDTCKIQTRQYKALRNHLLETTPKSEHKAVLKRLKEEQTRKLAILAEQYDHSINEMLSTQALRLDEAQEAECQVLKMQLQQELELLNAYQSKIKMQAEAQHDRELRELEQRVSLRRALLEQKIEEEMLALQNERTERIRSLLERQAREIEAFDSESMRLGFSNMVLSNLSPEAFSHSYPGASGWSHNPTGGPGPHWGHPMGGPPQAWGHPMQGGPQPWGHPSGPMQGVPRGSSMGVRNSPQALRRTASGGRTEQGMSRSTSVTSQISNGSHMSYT
Sequence of Serine/threonine-protein kinase PAK 4 (O96013 whole entry): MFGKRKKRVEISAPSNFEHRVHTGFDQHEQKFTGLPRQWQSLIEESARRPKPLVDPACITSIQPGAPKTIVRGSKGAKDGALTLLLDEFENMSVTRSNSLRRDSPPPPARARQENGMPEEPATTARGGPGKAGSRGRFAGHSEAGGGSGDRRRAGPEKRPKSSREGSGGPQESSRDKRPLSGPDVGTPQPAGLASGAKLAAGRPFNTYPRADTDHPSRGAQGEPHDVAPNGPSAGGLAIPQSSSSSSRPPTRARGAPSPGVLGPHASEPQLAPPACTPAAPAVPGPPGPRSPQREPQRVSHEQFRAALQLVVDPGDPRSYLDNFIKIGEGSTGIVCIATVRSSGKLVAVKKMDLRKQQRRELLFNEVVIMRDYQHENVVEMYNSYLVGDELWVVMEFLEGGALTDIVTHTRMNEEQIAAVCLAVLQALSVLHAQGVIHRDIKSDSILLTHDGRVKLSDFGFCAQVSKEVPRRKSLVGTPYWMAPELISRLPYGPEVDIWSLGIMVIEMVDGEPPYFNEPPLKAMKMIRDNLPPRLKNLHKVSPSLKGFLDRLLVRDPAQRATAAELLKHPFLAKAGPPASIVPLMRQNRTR
Sequence of Activated CDC42 kinase 1 (Q07912 whole entry): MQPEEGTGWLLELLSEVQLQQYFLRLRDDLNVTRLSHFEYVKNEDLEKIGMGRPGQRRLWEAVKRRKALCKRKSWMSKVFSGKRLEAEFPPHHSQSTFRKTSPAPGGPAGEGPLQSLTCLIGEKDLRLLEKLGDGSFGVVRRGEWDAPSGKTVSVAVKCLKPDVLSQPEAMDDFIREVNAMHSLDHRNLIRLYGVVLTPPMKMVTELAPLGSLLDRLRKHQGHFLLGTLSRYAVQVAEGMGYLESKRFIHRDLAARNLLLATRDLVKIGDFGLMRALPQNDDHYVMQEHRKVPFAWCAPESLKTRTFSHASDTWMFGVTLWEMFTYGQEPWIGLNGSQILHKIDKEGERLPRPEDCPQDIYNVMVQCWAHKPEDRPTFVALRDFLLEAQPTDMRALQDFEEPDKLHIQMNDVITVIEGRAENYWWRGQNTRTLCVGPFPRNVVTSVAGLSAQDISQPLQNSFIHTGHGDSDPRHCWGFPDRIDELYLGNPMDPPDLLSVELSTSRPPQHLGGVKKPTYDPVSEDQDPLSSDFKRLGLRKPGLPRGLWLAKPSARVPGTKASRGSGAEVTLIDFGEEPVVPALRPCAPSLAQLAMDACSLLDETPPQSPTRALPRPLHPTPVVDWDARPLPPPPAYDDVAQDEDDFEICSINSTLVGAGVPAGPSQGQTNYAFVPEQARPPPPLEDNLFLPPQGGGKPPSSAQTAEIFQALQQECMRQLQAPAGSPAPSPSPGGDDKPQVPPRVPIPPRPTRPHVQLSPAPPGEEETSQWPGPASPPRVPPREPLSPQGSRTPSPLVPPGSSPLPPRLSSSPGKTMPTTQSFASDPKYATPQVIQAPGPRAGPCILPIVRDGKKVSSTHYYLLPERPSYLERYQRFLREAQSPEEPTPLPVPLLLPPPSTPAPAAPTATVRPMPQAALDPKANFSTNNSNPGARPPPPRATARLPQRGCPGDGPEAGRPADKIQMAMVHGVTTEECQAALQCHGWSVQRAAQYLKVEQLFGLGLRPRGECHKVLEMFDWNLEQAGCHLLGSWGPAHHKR
Sequence of Dual specificity protein kinase CLK2 (P49760 whole entry): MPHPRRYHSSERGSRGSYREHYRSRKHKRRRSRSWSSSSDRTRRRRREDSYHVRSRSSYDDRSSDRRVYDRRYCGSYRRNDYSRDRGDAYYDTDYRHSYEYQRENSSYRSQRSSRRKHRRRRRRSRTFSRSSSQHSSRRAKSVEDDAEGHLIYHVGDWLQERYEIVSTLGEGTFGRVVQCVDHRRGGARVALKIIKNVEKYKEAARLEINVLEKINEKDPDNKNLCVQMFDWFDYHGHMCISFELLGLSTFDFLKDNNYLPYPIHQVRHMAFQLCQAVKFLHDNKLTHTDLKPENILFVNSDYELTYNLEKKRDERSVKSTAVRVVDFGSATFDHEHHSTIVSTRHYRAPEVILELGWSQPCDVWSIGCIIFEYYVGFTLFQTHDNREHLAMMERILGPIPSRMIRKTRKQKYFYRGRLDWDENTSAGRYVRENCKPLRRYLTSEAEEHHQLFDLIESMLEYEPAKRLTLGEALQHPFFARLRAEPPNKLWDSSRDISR
Sequence of Focal adhesion kinase 1 (Q05397 whole entry): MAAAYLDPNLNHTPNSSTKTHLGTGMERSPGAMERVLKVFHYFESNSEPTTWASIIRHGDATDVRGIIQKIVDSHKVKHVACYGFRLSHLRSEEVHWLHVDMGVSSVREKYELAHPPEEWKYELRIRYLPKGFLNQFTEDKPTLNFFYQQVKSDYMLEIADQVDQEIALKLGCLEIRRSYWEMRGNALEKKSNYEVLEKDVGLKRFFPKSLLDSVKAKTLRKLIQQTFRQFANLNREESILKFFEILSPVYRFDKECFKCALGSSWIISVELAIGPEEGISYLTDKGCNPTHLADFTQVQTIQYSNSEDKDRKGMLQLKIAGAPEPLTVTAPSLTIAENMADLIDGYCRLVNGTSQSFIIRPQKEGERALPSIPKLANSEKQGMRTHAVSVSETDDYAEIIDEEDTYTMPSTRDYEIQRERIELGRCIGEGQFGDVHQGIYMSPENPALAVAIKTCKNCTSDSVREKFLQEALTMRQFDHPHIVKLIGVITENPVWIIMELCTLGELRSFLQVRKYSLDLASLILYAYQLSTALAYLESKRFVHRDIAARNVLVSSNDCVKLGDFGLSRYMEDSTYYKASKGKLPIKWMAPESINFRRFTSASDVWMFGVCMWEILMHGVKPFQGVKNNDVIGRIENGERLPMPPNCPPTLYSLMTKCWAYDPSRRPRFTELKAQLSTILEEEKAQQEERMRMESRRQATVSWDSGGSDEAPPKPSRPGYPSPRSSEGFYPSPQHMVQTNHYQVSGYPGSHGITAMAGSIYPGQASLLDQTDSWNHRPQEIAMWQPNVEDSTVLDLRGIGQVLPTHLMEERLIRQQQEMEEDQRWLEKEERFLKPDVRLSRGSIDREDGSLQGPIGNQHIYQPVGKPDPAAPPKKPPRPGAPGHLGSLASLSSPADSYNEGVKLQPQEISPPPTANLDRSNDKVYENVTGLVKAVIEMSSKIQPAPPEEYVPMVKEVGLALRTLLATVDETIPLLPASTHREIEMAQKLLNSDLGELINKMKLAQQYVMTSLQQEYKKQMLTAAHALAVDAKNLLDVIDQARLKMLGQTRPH

NC(=O)c1ccc(-c2nc(-c3ccc4c(c3)OCO4)c(-c3ccccn3)[nH]2)cc1 [SB-431542]
inactive: [1] > 3.16 µM | [2] > 2.51 µM | [3] > 2.51 µM | [4] > 3.16 µM | [5] > 3.16 µM | [6] > 1.58 µM | [7] > 3.98 µM | [8] > 6.31 µM | [9] > 2.51 µM | [10] > 3.98 µM | [11] > 3.98 µM | [12] > 2.51 µM | [13] > 1.26 µM | [14] > 3.16 µM | [15] > 3.98 µM | [16] > 5.01 µM | [17] > 1.58 µM | [18] > 2.51 µM | [19] > 3.98 µM | [20] > 3.16 µM | [21] > 3.16 µM | [22] > 5.01 µM | [23] > 3.16 µM | [24] > 2.51 µM
